Source: patent US5726156A, “Cytokine regulatory agents and methods of use in pathologies and conditions associated with altered cytokine levels” (Trega Biosciences, Inc., priority 1995, dated 1998)

Key:
[1] = test system: Interleukin-6 (IL-6); test: Reduction of LPS-induced IL-6 levels in mice; type: in vivo; settings: 300 μg/mouse; LPS treated Balb/c mice
Protocol: Balb/c mice were grouped and treated as described in Example III, above. Blood samples were obtained from the orbital sinus at various times up to six hr and serum was collected and diluted as described above. A 100 μl aliquot was assayed for IL-6 levels using an IL-6-specific ELISA by a modification of the method of Starnes etal., J. Immunol. 145:4185-4194 (1990), which is incorporated herein by reference.
The mean (+/- SEM) IL-6 level in six mice from each group was determined and the percent reduction in IL-6 was calculated.

[2] = test system: Carageenan-induced paw swelling; test: Carageenan-induced paw swelling; type: in vivo, mice; settings: 1 μg/mouse; 2 hr time point
Protocol: Carageenan-induced paw swelling was induced using a modification of the methods of Hiltz and Lipton, Peptides 11:979-982 (1990); Vinegar et al., Fed. Proc. 46:118-126 (1987); and Vinegar et al., J. Pharmacol. Expt. Therap. 166:96-103 (1969), each of which is incorporated herein by reference. Briefly, adult female Balb/c mice were anesthetized by IP injection of 7 mg/kg ketoamine and 0.6 mg/kg rompun. Foot pad thickness was measured using a spring loaded micrometer (Swiss Precision Instruments). Foot pad thickness was expressed in units of 1/100 inch. After baseline measurements were obtained, mice were injected into a hind foot pad with either 0.2 ml physiologic saline (control) or varying doses of EX-2 or EX-3 in 0.2 ml saline (treated). The first injection was followed immediately by injection of 0.02 ml of 0.15% K-carageenan (Sigma Chemical Co.; St. Louis, Mo.).
Hind foot pad thickness was measured hourly for six hr, the change in thickness was determined and the percent reduction in swelling due to treatment with EX-2 was calculated.

[3] = test system: LPS-induced lethality; test: LPS-induced lethality (IP dosing); type: in vivo, mice; settings: 11 × 300 μg/mouse IP (3.3 mg), every 4 hr; 0.6 mg LPS
Protocol: These experiments were performed based on information reported by Rivier etal., Endocrinology 125:2800-2805 (1989), which is incorporated herein by reference. Adult female Balb/c mice were provided food and water ad libitum. Mice were injected IP every four hr for 40 hr with 30 to 300 μg EX-2, EX-3 or EX-4 in 0.2 ml saline (treated group) or with 0.2 ml saline, alone (control group) (10 mice per group). Immediately following the first injection, 0.6 mg LPS endotoxin in 0.2 ml saline was administered to each mouse. Following LPS injection, EX-2 or saline was administered to the treated mice or the control mice, respectively, every 4 hr for 36 hr.

[4] = test system: arachidonic acid-induced ear swelling; test: Arachidonic acid-induced ear swelling; type: in vivo, mice; settings: 100 μg/mouse IP 30 min prior to AA; 60 min after AA
Protocol: Experiments were performed using female Balb/c mice weighing 18-23 grams. Saline or 100 μg EX-2 or EX-3 was administered IP, 30 min prior to topical application of arachidonic acid (AA). A 10 μl pipet was used to apply 10 μl AA solution (100 mg/ml ethanol; Calbiochem-Novabiochem; San Diego Calif.) to the inner and outer surfaces of the right ear of each mouse. Ten μl ethanol, alone, was applied to the inner and outer surface of the left ear of each mouse. Ear thickness was measured with a hand-held spring loaded caliper immediately before and 60 min after AA application. Increase in ear thickness was calculated by subtracting the change observed in the control ear from the change observed in AA-treated ear. The value for each group (saline and control) is the average of the swelling observed in the individual mice in each group. The percent reduction of swelling is based on the swelling observed in the saline control group.

[5] = test system: morphine-induced respiratory depression; test: Morphine-induced respiratory depression; type: in vivo, rabbits; settings: 10 + 20 + 20 μg/kg/rabbit iv; end of experiment (80 min)
Protocol: Male Shelton rabbits (3-4 kg) were restrained and fitted around the thorax, just behind the front limbs, with a respiration transducer (Model F-RCT; Grass Instruments; Quincy Ma). The transducer was connected to a grass polygraph via an EKG cable. An intravenous line was established for drug administration by cannulating the marginal ear vein using a 25 G butterfly needle.
Rabbit breathing was allowed to stabilize, then morphine sulfate (2 mg/kg in 0.5 ml saline) was administered by intravenous (iv) injection and respiratory rate and depth were monitored for 10 min. A second dose of morphine was administered, then, after 10 min, EX-2 or EX-3 (10 μg/kg in 0.5 ml saline) was administered, iv, and rabbits were monitored for 20 min. Two additional doses of EX-2 or EX-3 (20 μg/kg in 1.0 ml saline) were administered at 20 min intervals, i.e., 40 min and 60 min after the first morphine injection.
Results were calculated as the percent change from baseline values and are expressed as the difference of the mean value of the treated group minus the mean value of the control group at the end of the experiment (80 min).

[6] = test system: disuse deconditioning; test: Disuse deconditioning (tail suspension) in rats; type: in vivo; settings: 1 or 5 μg/kg IP twice daily
Protocol: Adult male Sprague-Dawley rats (355-365 g) were used in this study. Animals were housed individually in standard rat cages and were acclimated on a treadmill for 4 days. The next day, a baseline tail bleed was performed, followed by a maximal treadmill stress test the day after. The day following the stress test, the animals were divided into the appropriate treatment and control groups and the animals were suspended by their tails in suspension cages, which simulates weightlessness and, therefore, deconditions the animals. Another group of control animals was placed in standard rat cages with grated flooring similar to that utilized in the suspension cages. All animals were housed one per cage and supplied with food and water ad libitum. Body weights and food consumptions were measured daily. Animals received twice daily IP injections of 1 μg/kg or 5 μg/kg body weight of EX-2 (treated), or 1 ml/kg body weight of saline (control). On day 10, all animals were stress tested on the treadmill until they reached exhaustion. Data on maximum VO2 and running time were collected and compared to pre-suspension results. On day 14, all animals were sacrificed, and blood, tissues, and organs were collected for further analysis. All procedures and tests were performed blind to avoid researcher subjectivity. Statistical significance (p<0.05) between groups was evaluated by ANOVA with Student-Newman-Keuls test for multiple comparisons. All data are reported as the mean ± standard error (SE).
All of the animals were subjected to the stress tests, which measured exercise time and maximal VO2. As well, levels of the oxidative enzyme soleus citrate synthase and tibia bone density were measured.
Soleus citrate synthase was attenuated by 50%.

[7] = suspended rats, stress test day 10

Ac-Nle-Gln-His-(D)Phe-Arg-(D)Trp-Gly-NH2 [EX-2]
Reduction in IL-6 levels [1]: 60%
Reduction in Carageenan-induced Paw Swelling [2]: 45%
Inhibition of LPS-induced Lethality (increase in survival vs control) [3]: 83%
Reduction in arachidonic acid-induced Ear Swelling [4]: 72%
Reduction in Morphine-induced Respiratory Depression [5]: 50%
% Attenuation of suspension-induced decrease, Soleus Citrate Synthase ([6]; 14 days suspension): 50%
% Attenuation of suspension-induced decrease, Tibia Bone Density ([6]; 14 days suspension): 50%
% Attenuation of suspension-induced decrease, Exercise Time [6, 7]: 44%
% Attenuation of suspension-induced decrease, Maximal VO2 [6, 7]: 80%
